Where a SMILES comes first, the peptide text is derived from it. Bridges are numbered along the chain shown (N, C = ends). [ ]: non-standard residue; d: D form. The star is where a group is joined. Threoninol(2S,3R) = C[C@@H](O)[C@H](CO)N*
What was measured:
[1] = DRUGMATRIX: Calcium Channel Type L, Benzothiazepine radioligand binding (ligand: [3H] Diltiazem); type: cell membranes, Rattus norvegicus, Wistar, Brain, Membrane; conditions: Not Active = under 50% inhibition at 10 µM
[2] = biological target: 5-hydroxytryptamine receptor 4 (Cavia porcellus, UniProt O70528); type: cell membranes, Dunkin-Hartley, Striatum, Membrane; further: in other assays of this panel Not Active means under 50% inhibition at 10 µM
[3] = biological target: Vascular endothelial growth factor receptor 1 (Homo sapiens, UniProt P17948); type: cell-based; conditions: huvec; further: in other assays of this panel Not Active means under 50% inhibition at 10 µM
[4] = biological target: T1, C-C chemokine receptor type 4 (Homo sapiens, UniProt P51679); type: cell membranes, Membrane; conditions: chem-1; further: in other assays of this panel Not Active means under 50% inhibition at 10 µM
T1 sequence (P51679 whole entry): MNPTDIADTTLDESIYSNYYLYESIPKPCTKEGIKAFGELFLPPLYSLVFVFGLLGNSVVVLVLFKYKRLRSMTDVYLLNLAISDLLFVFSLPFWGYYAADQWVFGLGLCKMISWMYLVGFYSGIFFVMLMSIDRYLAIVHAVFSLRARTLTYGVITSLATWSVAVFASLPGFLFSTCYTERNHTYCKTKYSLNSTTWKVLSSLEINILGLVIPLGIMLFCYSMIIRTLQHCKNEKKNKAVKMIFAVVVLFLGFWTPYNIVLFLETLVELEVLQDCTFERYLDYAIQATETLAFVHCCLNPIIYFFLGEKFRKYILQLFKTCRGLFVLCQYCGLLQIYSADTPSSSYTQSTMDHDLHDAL

[5] = DRUGMATRIX: Glutamate, NMDA, Phencyclidine radioligand binding (ligand: [3H] TCP); type: cell membranes, Rattus norvegicus, Wistar, Cerebral cortex, Membrane; conditions: Not Active = under 50% inhibition at 10 µM
[6] = biological target: Nitric oxide synthase 1 (Rattus norvegicus, UniProt P29476); type: tissue-based, Cerebellum; further: in other assays of this panel Not Active means under 50% inhibition at 10 µM
[7] = DRUGMATRIX: Phosphodiesterase PDE3 enzyme inhibition (substrate: [3H]cAMP + cAMP); type: tissue-based, Homo sapiens; conditions: platelet; Not Active = under 50% inhibition at 10 µM

5-hydroxytryptamine receptor 4, sequence (O70528 whole entry): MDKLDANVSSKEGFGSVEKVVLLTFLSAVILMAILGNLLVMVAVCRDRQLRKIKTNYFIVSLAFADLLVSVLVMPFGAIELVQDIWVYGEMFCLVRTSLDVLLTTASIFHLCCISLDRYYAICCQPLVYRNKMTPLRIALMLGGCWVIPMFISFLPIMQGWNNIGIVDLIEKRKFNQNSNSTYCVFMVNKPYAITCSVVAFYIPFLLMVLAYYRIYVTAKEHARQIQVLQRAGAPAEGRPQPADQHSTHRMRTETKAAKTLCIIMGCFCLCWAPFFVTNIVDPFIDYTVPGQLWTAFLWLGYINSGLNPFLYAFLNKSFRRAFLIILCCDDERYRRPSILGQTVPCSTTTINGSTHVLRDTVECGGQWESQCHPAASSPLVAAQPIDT
Vascular endothelial growth factor receptor 1, sequence (P17948 whole entry): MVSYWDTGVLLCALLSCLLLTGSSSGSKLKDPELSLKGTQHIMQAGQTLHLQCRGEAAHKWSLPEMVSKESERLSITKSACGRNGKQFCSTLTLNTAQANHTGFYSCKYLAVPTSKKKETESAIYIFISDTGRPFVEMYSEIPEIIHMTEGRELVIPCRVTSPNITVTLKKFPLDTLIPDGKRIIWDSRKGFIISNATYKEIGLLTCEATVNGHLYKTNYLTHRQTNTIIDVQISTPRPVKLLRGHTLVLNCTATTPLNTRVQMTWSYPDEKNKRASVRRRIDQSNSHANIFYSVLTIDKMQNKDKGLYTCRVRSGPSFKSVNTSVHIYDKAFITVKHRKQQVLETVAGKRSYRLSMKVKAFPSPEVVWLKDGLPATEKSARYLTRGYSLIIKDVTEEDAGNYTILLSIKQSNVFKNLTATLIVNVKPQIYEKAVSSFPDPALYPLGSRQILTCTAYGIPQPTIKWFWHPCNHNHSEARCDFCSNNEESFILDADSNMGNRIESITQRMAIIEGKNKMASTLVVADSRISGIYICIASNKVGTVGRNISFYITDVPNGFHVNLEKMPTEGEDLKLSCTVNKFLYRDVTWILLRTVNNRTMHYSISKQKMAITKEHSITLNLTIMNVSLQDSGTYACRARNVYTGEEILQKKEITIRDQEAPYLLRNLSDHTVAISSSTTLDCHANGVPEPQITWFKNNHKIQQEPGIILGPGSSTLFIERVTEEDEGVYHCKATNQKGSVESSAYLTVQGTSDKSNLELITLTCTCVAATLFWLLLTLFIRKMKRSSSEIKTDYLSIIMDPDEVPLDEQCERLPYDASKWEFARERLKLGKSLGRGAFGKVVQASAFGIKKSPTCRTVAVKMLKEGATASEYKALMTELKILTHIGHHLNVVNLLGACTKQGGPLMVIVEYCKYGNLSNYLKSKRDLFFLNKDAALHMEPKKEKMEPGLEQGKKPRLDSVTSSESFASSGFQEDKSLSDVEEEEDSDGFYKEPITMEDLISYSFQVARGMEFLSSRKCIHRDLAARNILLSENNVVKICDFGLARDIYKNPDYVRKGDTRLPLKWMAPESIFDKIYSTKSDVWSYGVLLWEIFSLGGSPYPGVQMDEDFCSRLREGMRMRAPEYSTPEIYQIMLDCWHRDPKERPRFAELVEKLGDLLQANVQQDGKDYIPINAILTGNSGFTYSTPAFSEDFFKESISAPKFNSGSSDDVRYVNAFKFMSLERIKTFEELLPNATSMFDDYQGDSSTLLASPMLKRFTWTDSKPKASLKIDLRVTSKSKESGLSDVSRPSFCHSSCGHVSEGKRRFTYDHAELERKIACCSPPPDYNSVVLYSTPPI
Nitric oxide synthase 1, sequence (P29476 whole entry): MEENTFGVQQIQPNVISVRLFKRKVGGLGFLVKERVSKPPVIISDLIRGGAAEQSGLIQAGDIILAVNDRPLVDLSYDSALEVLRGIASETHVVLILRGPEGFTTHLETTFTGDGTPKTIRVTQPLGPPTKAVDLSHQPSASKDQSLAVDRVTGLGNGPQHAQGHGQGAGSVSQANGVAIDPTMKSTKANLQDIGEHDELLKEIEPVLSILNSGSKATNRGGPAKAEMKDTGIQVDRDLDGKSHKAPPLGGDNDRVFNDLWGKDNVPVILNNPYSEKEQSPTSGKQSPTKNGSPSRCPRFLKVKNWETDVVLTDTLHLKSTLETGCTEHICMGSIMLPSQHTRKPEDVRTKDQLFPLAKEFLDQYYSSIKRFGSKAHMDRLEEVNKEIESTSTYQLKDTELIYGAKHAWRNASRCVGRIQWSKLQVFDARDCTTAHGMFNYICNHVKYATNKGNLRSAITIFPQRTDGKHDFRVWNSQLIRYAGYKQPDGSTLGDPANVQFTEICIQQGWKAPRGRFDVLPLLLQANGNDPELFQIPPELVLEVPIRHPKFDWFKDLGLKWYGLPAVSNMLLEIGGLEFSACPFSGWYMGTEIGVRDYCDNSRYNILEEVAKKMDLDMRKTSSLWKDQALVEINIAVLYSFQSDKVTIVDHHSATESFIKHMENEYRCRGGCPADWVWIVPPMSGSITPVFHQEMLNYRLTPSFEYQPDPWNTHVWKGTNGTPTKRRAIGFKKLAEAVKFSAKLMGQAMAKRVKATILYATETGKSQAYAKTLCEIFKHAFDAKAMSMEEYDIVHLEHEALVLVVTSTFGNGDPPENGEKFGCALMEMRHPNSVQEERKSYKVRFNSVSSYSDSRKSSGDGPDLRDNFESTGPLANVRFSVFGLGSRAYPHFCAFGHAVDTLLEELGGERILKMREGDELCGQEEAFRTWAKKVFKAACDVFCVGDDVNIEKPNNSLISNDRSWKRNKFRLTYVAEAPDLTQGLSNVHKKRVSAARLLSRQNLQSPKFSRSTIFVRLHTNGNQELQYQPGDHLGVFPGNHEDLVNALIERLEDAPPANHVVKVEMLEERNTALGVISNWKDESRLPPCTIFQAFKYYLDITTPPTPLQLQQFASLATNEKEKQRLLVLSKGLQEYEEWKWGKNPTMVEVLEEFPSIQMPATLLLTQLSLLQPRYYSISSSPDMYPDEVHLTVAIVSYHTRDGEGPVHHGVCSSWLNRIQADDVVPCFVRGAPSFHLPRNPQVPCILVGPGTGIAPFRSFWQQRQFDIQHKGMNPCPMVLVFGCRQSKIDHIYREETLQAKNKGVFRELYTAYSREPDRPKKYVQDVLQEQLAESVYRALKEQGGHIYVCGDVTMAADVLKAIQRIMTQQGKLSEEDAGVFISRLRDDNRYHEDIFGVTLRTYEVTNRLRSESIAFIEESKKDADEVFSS

COc1ccccc1C(=O)N1CCC(Cc2ccccc2)CC1
Not Active: IC50 [1] | Ki [1] | IC50 [2] | IC50 [3] | IC50 [4] | IC50 [5] | Ki [5] | IC50 [6] | IC50 [7] | Ki [7]

Cc1ccccc1C(=O)N1CCC(Cc2ccccc2)CC1
Not Active: IC50 [1] | Ki [1] | IC50 [2] | IC50 [3] | IC50 [4] | IC50 [5] | Ki [5] | IC50 [6] | IC50 [7] | Ki [7]

O=C1CC[C@H](N2C(=O)c3ccccc3C2=O)C(=O)N1
Not Active: IC50 [1] | Ki [1] | IC50 [2] | IC50 [3] | IC50 [4] | IC50 [5] | Ki [5] | IC50 [6] | IC50 [7] | Ki [7]

N=C(Nc1ccccc1)Nc1ccccc1
Not Active: IC50 [1] | Ki [1] | IC50 [2] | IC50 [3] | IC50 [4] | IC50 [5] | Ki [5] | IC50 [6] | IC50 [7] | Ki [7]

C[C@@H](O)[C@H](CO)NC(=O)[C@@H]1CSSC[C@H](NC(=O)[C@H](N)Cc2ccccc2)C(=O)N[C@@H](Cc2ccccc2)C(=O)N[C@H](Cc2c[nH]c3ccccc23)C(=O)N[C@@H](CCCCN)C(=O)N[C@@H]([C@@H](C)O)C(=O)N1 (H-[dF]CF[dW]KTC-{Threoninol(2S,3R)}; disulfide 2-7)
Not Active: IC50 [1] | Ki [1] | IC50 [2] | IC50 [3] | IC50 [4] | IC50 [5] | Ki [5] | IC50 [6] | IC50 [7] | Ki [7]

S=C=Nc1cccc2ccccc12 [1-NAPHTHYLISOTHIOCYANATE]
Not Active: IC50 [1] | Ki [1] | IC50 [2] | IC50 [3] | IC50 [4] | IC50 [5] | Ki [5] | IC50 [6] | IC50 [7] | Ki [7]

C[C@](O)(CS(=O)(=O)c1ccc(F)cc1)C(=O)Nc1ccc(C#N)c(C(F)(F)F)c1 [(R)-BICALUTAMIDE]
Not Active: IC50 [1] | Ki [1] | IC50 [2] | IC50 [3] | IC50 [4] | IC50 [5] | Ki [5] | IC50 [6] | IC50 [7] | Ki [7]

CCCC(=O)Nc1ccc(OCC(O)CNC(C)C)c(C(C)=O)c1 (configuration not stated) [ACEBUTOLOL]
Not Active: IC50 [1] | Ki [1] | IC50 [2] | IC50 [3] | IC50 [4] | IC50 [5] | Ki [5] | IC50 [6] | IC50 [7] | Ki [7]

CC(=O)Nc1ccc(O)cc1 [ACETAMINOPHEN]
Not Active: IC50 [1] | Ki [1] | IC50 [2] | IC50 [3] | IC50 [4] | IC50 [5] | Ki [5] | IC50 [6] | IC50 [7] | Ki [7]

COc1cc2c(c3oc(=O)c4c(c13)CCC4=O)[C@@H]1C=CO[C@@H]1O2 [AFLATOXIN]
Not Active: IC50 [1] | Ki [1] | IC50 [2] | Ki [2] | IC50 [3] | Ki [3] | IC50 [4] | Ki [4] | IC50 [5] | Ki [5] | IC50 [6] | Ki [6] | IC50 [7] | Ki [7]

N=C(N)NC(=O)c1nc(Cl)c(N)nc1N [AMILORIDE]
Not Active: IC50 [1] | Ki [1] | IC50 [2] | IC50 [3] | IC50 [4] | IC50 [5] | Ki [5] | IC50 [6] | IC50 [7] | Ki [7]

Cc1cc(=O)n(-c2ccccc2)n1C [ANTIPYRINE]
Not Active: IC50 [1] | Ki [1] | IC50 [2] | IC50 [3] | IC50 [4] | IC50 [5] | Ki [5] | IC50 [6] | IC50 [7] | Ki [7]

CN1C(=O)COc2c(C(=O)NC3CN4CCC3CC4)cc(Cl)cc21 (configuration not stated) [AZASETRON]
Not Active: IC50 [1] | Ki [1] | IC50 [2] | IC50 [3] | IC50 [4] | IC50 [5] | Ki [5] | IC50 [6] | IC50 [7] | Ki [7]

C[C@H]1C[C@H]2[C@@H]3CCC4=CC(=O)C=C[C@]4(C)[C@@]3(Cl)[C@@H](O)C[C@]2(C)[C@@]1(O)C(=O)CO [BECLOMETHASONE]
Not Active: IC50 [1] | Ki [1] | IC50 [2] | IC50 [3] | IC50 [4] | IC50 [5] | Ki [5] | IC50 [6] | IC50 [7] | Ki [7]

CCOC(=O)[C@H](CCc1ccccc1)N[C@H]1CCc2ccccc2N(CC(=O)O)C1=O [BENAZEPRIL]
Not Active: IC50 [1] | Ki [1] | IC50 [2] | IC50 [3] | IC50 [4] | IC50 [5] | Ki [5] | IC50 [6] | IC50 [7] | Ki [7]

Nc1c(CC(=O)O)cccc1C(=O)c1ccc(Br)cc1 [BROMFENAC]
Not Active: IC50 [1] | Ki [1] | IC50 [2] | IC50 [3] | IC50 [4] | IC50 [5] | Ki [5] | IC50 [6] | IC50 [7] | Ki [7]

CCCCN1CCCCC1C(=O)Nc1c(C)cccc1C.Cl (configuration not stated) [BUPIVACAINE HYDROCHLORIDE]
Not Active: IC50 [1] | Ki [1] | IC50 [2] | IC50 [3] | IC50 [4] | IC50 [5] | Ki [5] | IC50 [6] | IC50 [7] | Ki [7]

O=C1CC2(CCCC2)CC(=O)N1CCCCN1CCN(c2ncccn2)CC1 [BUSPIRONE]
Not Active: IC50 [1] | Ki [1] | IC50 [2] | IC50 [3] | IC50 [4] | IC50 [5] | Ki [5] | IC50 [6] | IC50 [7] | Ki [7]

C[C@@]12C(=O)OC(=O)[C@]1(C)[C@H]1CC[C@@H]2O1 [CANTHARIDIN]
Not Active: IC50 [1] | Ki [1] | IC50 [2] | IC50 [3] | IC50 [4] | IC50 [5] | Ki [5] | IC50 [6] | IC50 [7] | Ki [7]

O=NN(CCCl)C(=O)NCCCl [CARMUSTINE]
Not Active: IC50 [1] | Ki [1] | IC50 [2] | IC50 [3] | IC50 [4] | IC50 [5] | Ki [5] | IC50 [6] | IC50 [7] | Ki [7]

COc1ccc2cc([C@H](C)C(=O)O)ccc2c1 [NAPROXEN]
Not Active: IC50 [1] | Ki [1] | IC50 [2] | IC50 [3] | IC50 [4] | IC50 [5] | Ki [5] | IC50 [6]

From ChEMBL document CHEMBL1909046, “DrugMatrix in vitro pharmacology data”
